Measured values: patent publication US12384816B2, “Blood-brain barrier permeable peptide” (NATIONAL UNIVERSITY CORPORATION KUMAMOTO UNIVERSITY, priority 2018, dated 2025)
Each block holds one molecule with its values, some of them ahead of it. Positions of bridges follow the written chain, without caps; N, C: chain ends. Residues, ends and D or L forms follow the SMILES beside them.

Columns and labels:
Assay type in all cases: cell-based, human
hCMEC/D3 cells [1] = test: Influence of ligands on hCMEC/D3 permeation of SLS-phage
Method: Using the hCMEC/D3 cells, influences by various ligands (vitronectin, fibrinogen, RGD peptide, transferrin) on the BBB permeability of the phage presenting the peptide SLSHSPQ (SEQ ID NO: 1) of the present invention were tested.
In the +vitronectin group, human vitronectin (R&D Systems, Inc.) was added to give 20 μg/mL. In the +fibrinogen group, human fibrinogen (Wako) was added to give 50 μg/mL. In the +RGD group, an RGD peptide (SIGMA) was added to give 100 μM. In the +holo-Tf (transferrin) group, holo-Tf (SIGMA) was added to give 100 μM.

hCMEC/D3 cells [2] = test: Influence on tight junction (TEER) of hCMEC/D3 cells; conditions: 0 to 100 μM, until 48 hours
Method: The synthetic cyclic peptide SLSHSPQ (SEQ ID NO: 1) (0 to 100 μM) before labeling prepared in Example 3 was added to the cells, and they were incubated in a CO2 incubator at 37° C. The influence on tight junction was evaluated by measuring TEER over time until 48 hours later.

hCMEC/D3 cells [3] = test: Cytotoxicity (cell counting kit-8) in hCMEC/D3 cells; conditions: 0 to 100 μM, 24 and 48 hours
Method: The synthetic cyclic peptide SLSHSPQ (SEQ ID NO: 1) (0 to 100 μM) was added to the cells, and incubated in a CO2 incubator at 37° C. The cell viability after 24 and 48 hours was calculated using the cell counting kit-8.

hCMEC/D3 cells [4] = test: Influence of monensin on hCMEC/D3 permeation of SLS-phage; conditions: monensin-containing medium for 18 hours, concentration-dependent
Method: The medium at the luminal side and the abluminal side was replaced by a monensin-containing medium, and culture was further performed for 18 hours.

hCMEC/D3 cells [5] = test: Uptake of FAM-labeled cyclic peptide into hCMEC/D3 cells (confocal microscopy); conditions: 10 µM, 37° C., 10, 30 and 60 minutes
Method: A FAM-labeled synthetic cyclic peptide having the SLSHSPQ (SEQ ID NO: 1) sequence was prepared by requesting Scrum Co., Ltd. A peptide having the sequence of […] (SEQ ID NO: 5), which contains […] (SEQ ID NO: 6), was chemically synthesized, and then a cyclic peptide was formed by forming a disulfide bond between the cysteine residues. Then, a lysine residue was added to the C-terminal and FAM was further bonded to prepare a FAM-labeled cyclic peptide.
The FAM-labeled synthetic cyclic peptide SLSHSPQ (SEQ ID NO: 1) (10 µM) was added to the cells, and incubated on a 37° C. hot plate for 10, 30 and 60 minutes. These were washed with 500 μL of cold PBS three times, and fixed with 4% PFA for 10 minutes. […] (registered trademark) Mounting Medium with DAPI was dropped, then, a cover glass was place thereon to enclose it, and FAM and DAPI were observed by a confocal microscopy. […] From this, it was confirmed that the synthetic cyclic peptide SLSHSPQ (SEQ ID NO: 1) is internalized in the cell.

Molecule: holo-transferrin
effect on permeation of the SLS-phage (hCMEC/D3 cells [1]; ligand 100 μM): promoted

influence on tight junction (TEER) (hCMEC/D3 cells [2]): did not reduce the tight junction
Molecule: CC(C)C[C@@H]1NC(=O)[C@H](CO)NC(=O)[C@@H](NC(=O)[C@H](C)N)CSSC[C@@H](C(=O)NCC(=O)NCC(=O)NCC(=O)N[C@@H](CO)C(=O)O)NC(=O)[C@H](CCC(N)=O)NC(=O)[C@@H]2CCCN2C(=O)[C@H](CO)NC(=O)[C@H](Cc2c[nH]cn2)NC(=O)[C@H](CO)NC1=O [synthetic cyclic peptide SLSHSPQ] (H-ACSLSHSPQCGGGS-OH; disulfide 2-10)
cytotoxicity (cell viability) (hCMEC/D3 cells [3]): no cytotoxicity

Molecule: CC[C@@]1([C@@H]2O[C@@H]([C@H]3O[C@@](O)(CO)[C@H](C)C[C@@H]3C)C[C@@H]2C)CC[C@H]([C@]2(C)CC[C@]3(C[C@H](O)[C@@H](C)[C@@H]([C@@H](C)[C@@H](OC)[C@H](C)C(=O)O)O3)O2)O1 [monensin]
effect on hCMEC/D3 cell permeation amount of the SLS-phage (hCMEC/D3 cells [4]): increased

Molecule: fibrinogen
effect on permeation of the SLS-phage (hCMEC/D3 cells [1]; human fibrinogen 50 μg/mL): did not inhibit

Molecule: FAM-labeled synthetic cyclic peptide SLSHSPQ: Cyclic ACSLSHSPQCGGGS with lysine residue added to the C-terminal and FAM bonded (not fully specified; cyclic; C-terminal lysine added; FAM label)
uptake into hCMEC/D3 cells (hCMEC/D3 cells [5]): taken up into the cells

Molecule: RGD peptide
effect on permeation of the SLS-phage (hCMEC/D3 cells [1]; ligand 100 μM): did not inhibit

B1: vitronectin (protein, UniProt P04004 20-478, looked up)
Vitronectin: DQESCKGRCTEGFNVDKKCQCDELCSYYQSCCTDYTAECKPQVTRGDVFTMPEDEYTVYDDGEEKNNATVHEQVGGPSLTSDLQAQSKGNPEQTPVLKPEEEAPAPEVGASKPEGIDSRPETLHPGRPQPPAEEELCSGKPFDAFTDLKNGSLFAFRGQYCYELDEKAVRPGYPKLIRDVWGIEGPIDAAFTRINCQGKTYLFKGSQYWRFEDGVLDPDYPRNISDGFDGIPDNVDAALALPAHSYSGRERVYFFKGKQYWEYQFQHQPSQEECEGSSLSAVFEHFAMMQRDSWEDIFELLFWGRTSAGTRQPQFISRDWHGVPGQVDAAMAGRIYISGMAPRPSLAKKQRFRHRNRKGYRSQRGHSRGRNQNSRRPSRATWLSLFSSEESNLGANNYDDYRMDWLVPATCEPIQSVFFFSGDKYYRVNLRTRRVDTVDPPYPRSIAQYWLGCPAPGHL
notes: human vitronectin (R&D Systems, Inc.)
effect on permeation of the SLS-phage (hCMEC/D3 cells [1]; human vitronectin 20 μg/mL): inhibited
